Measurements from the NIST ThermoML archive (doi:10.1016/j.jct.2008.05.005).
± gives the expanded uncertainty stated by the source.

Assay: xn = mol fraction of the nth substance listed
Conditions: Liquid, Vibrating tube method

CCCCn1cc[n+](C)c1.F[B-](F)(F)F [1-butyl-3-methylimidazolium tetrafluoroborate] + CO
mass density [kg/m3]
Conditions | 373.15 K | 398.15 K
870 kPa, x1 = 0.0087 | – | 702.45 ± 0.52
980 kPa, x1 = 0.7501 | – | 1114.32 ± 0.36
990 kPa, x1 = 0.4988 | – | 1069.4 ± 0.33
1020 kPa, x1 = 0.2626 | – | 985.77 ± 0.32
1030 kPa, x1 = 0.9102 | – | 1132.67 ± 0.41
1250 kPa, x1 = 0.0433 | – | 772.27 ± 0.52
2310 kPa, x1 = 0.1302 | – | 891.44 ± 0.37
5010 kPa, x1 = 0.0087 | – | 709.59 ± 0.53
5060 kPa, x1 = 0.0433 | – | 778.08 ± 0.45
5060 kPa, x1 = 0.2626 | – | 989.1 ± 0.32
5080 kPa, x1 = 0.4988 | – | 1072.6 ± 0.33
5120 kPa, x1 = 0.1302 | – | 894.51 ± 0.37
5310 kPa, x1 = 0.7501 | – | 1117.54 ± 0.37
5410 kPa, x1 = 0.9102 | – | 1135.7 ± 0.42
10030 kPa, x1 = 0.0087 | – | 717.77 ± 0.54
10030 kPa, x1 = 0.1302 | – | 899.7 ± 0.37
10120 kPa, x1 = 0.2626 | – | 994.1 ± 0.32
10250 kPa, x1 = 0.9102 | – | 1138.98 ± 0.44
10410 kPa, x1 = 0.0433 | – | 785.75 ± 0.46
10410 kPa, x1 = 0.7501 | – | 1121.25 ± 0.39
10470 kPa, x1 = 0.4988 | – | 1077.23 ± 0.34
14950 kPa, x1 = 0.0087 | – | 725.27 ± 0.56
15020 kPa, x1 = 0.1302 | – | 904.75 ± 0.37
15070 kPa, x1 = 0.0433 | – | 791.97 ± 0.47
15210 kPa, x1 = 0.4988 | – | 1081.15 ± 0.34
15360 kPa, x1 = 0.9102 | – | 1142.35 ± 0.46
15450 kPa, x1 = 0.2626 | – | 999.14 ± 0.32
15960 kPa, x1 = 0.7501 | – | 1125.17 ± 0.41
20030 kPa, x1 = 0.4988 | – | 1085 ± 0.35
20060 kPa, x1 = 0.0087 | – | 732.52 ± 0.58
20060 kPa, x1 = 0.2626 | – | 1003.34 ± 0.32
20100 kPa, x1 = 0.1302 | – | 909.67 ± 0.37
20310 kPa, x1 = 0.0433 | – | 798.45 ± 0.48
20340 kPa, x1 = 0.7501 | – | 1128.18 ± 0.42
20470 kPa, x1 = 0.9102 | – | 1145.63 ± 0.49
24980 kPa, x1 = 0.0087 | – | 738.99 ± 0.6
25010 kPa, x1 = 0.9102 | – | 1148.46 ± 0.51
25060 kPa, x1 = 0.1302 | – | 914.25 ± 0.38
25080 kPa, x1 = 0.0433 | – | 803.88 ± 0.49
25320 kPa, x1 = 0.4988 | – | 1089.05 ± 0.36
25620 kPa, x1 = 0.2626 | – | 1008.18 ± 0.32
25720 kPa, x1 = 0.7501 | – | 1131.78 ± 0.44
29970 kPa, x1 = 0.1302 | – | 918.57 ± 0.38
30080 kPa, x1 = 0.7501 | – | 1134.62 ± 0.46
30090 kPa, x1 = 0.4988 | – | 1092.57 ± 0.37
30120 kPa, x1 = 0.0087 | – | 745.21 ± 0.62
30200 kPa, x1 = 0.0433 | – | 809.19 ± 0.51
30550 kPa, x1 = 0.0433 | 830.7 ± 0.54 | –
30740 kPa, x1 = 0.2626 | – | 1012.44 ± 0.32
30780 kPa, x1 = 0.0087 | 768.4 ± 0.6 | –
30890 kPa, x1 = 0.9102 | – | 1152.03 ± 0.54
34960 kPa, x1 = 0.0433 | – | 813.67 ± 0.52
34970 kPa, x1 = 0.0433 | 834.46 ± 0.49 | –
35040 kPa, x1 = 0.4988 | – | 1096.06 ± 0.39
35040 kPa, x1 = 0.9102 | 1169.67 ± 0.59 | –
35060 kPa, x1 = 0.1302 | – | 922.81 ± 0.38
35210 kPa, x1 = 0.7501 | 1153.29 ± 0.51 | 1137.87 ± 0.49
35280 kPa, x1 = 0.9102 | – | 1154.61 ± 0.56
35310 kPa, x1 = 0.0087 | – | 750.93 ± 0.64
35560 kPa, x1 = 0.1302 | 941.4 ± 0.37 | –
35620 kPa, x1 = 0.2626 | 1033.9 ± 0.33 | 1016.31 ± 0.32
35640 kPa, x1 = 0.4988 | 1112.39 ± 0.4 | –
35780 kPa, x1 = 0.0087 | 773.25 ± 0.61 | –
39510 kPa, x1 = 0.0087 | 776.62 ± 0.63 | –
39740 kPa, x1 = 0.1302 | – | 926.51 ± 0.39
39910 kPa, x1 = 0.0433 | 838.34 ± 0.51 | –
39920 kPa, x1 = 0.9102 | – | 1157.27 ± 0.59
39940 kPa, x1 = 0.0433 | – | 817.88 ± 0.54
39940 kPa, x1 = 0.2626 | 1036.83 ± 0.33 | –
39940 kPa, x1 = 0.7501 | – | 1140.77 ± 0.51
39940 kPa, x1 = 0.9102 | 1172.26 ± 0.62 | –
39960 kPa, x1 = 0.4988 | – | 1099.38 ± 0.4
39970 kPa, x1 = 0.0087 | – | 755.59 ± 0.66
39970 kPa, x1 = 0.4988 | 1115.12 ± 0.42 | –
39980 kPa, x1 = 0.2626 | – | 1019.62 ± 0.33
39980 kPa, x1 = 0.7501 | 1155.94 ± 0.53 | –
40050 kPa, x1 = 0.1302 | 944.67 ± 0.37 | –
